In patent US20230167127A1, “COMPOUNDS AND THEIR USE IN THE TREATMENT OF BACTERIAL INFECTION” (Hoffmann-La Roche Inc., priority 2020, published 2023):
Where a name gives a salt, the structure may show the parent alone.

Tested on: Escherichia coli ATCC 25922
Assay: 50% growth inhibitory concentration (IC50) determination, Iso-Sensitest broth dilution
Assay type: cell-based
Conditions: Escherichia coli, ATCC25922, 16 h, strain Escherichia coli ATCC 25922; 10-point broth dilution, optical density at 600 nm over 16 h; read-out: Escherichia coli growth inhibition IC50
How it was run: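 10-point twofold Iso-Sensitest broth dilution (e.g. 50 to 0.097 μM final) with DMSO stocks, incubated at 35±2° C. Growth followed by OD 600 nm every 20 min over 16 h; IC50 derived from growth inhibition during logarithmic phase.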

| SMILES | IC50 [nM] |
| --- | --- |
| N#Cc1cc(OCc2cc[nH]n2)cc2c1CC(CNCCC1CN(c3cnc4c(n3)NC(=O)CO4)C(=O)O1)C2 (stereo not shown) [Example 404, 2-[[2-[2-oxo-3-(3-oxo-4H-pyrazino[2,3-b][1,4]oxazin-6-yl)-1,3-oxazolidin-5-yl]ethylamino]methyl]-6-(1H-pyrazol-3-ylmethoxy)-2,3-dihydro-1H-indene-4-carbonitrile; formic acid] | < 97.7 |
| Cc1nccc2c1CC(NCCCC1CN(c3ccc4c(n3)NC(=O)CO4)C(=O)O1)C2 (stereo not shown) [Example 94, 6-[5-[3-[(1-methyl-6,7-dihydro-5H-cyclopenta[c]pyridin-6-yl)amino]propyl]-2-oxo-1,3-oxazolidin-3-yl]-4H-pyrido[3,2-b][1,4]oxazin-3-one] | 485 |
| CCNC(=O)COc1cc(F)c2c(c1)CC(CNCCC1CN(c3cnc4c(n3)NC(=O)CO4)C(=O)O1)C2 (stereo not shown) [Example 308, N-ethyl-2-[[7-fluoro-2-[[2-[2-oxo-3-(3-oxo-4H-pyrazino[2,3-b][1,4]oxazin-6-yl)-1,3-oxazolidin-5-yl]ethylamino]methyl]-2,3-dihydro-1H-inden-5-yl]oxy]acetamide; formic acid] | 471 |
| N#Cc1cc(OCc2cn[nH]c2)cc2c1CC(CNCCC1CN(c3cnc4c(n3)NC(=O)CO4)C(=O)O1)C2 (stereo not shown) [Example 405, 2-[[2-[2-oxo-3-(3-oxo-4H-pyrazino[2,3-b][1,4]oxazin-6-yl)-1,3-oxazolidin-5-yl]ethylamino]methyl]-6-(1H-pyrazol-4-ylmethoxy)-2,3-dihydro-1H-indene-4-carbonitrile; formic acid] | < 97.7 |
| N#Cc1cc(OCC2CNC2)cc2c1CC(CNCCC1CN(c3ccc4c(n3)NC(=O)CO4)C(=O)O1)C2 (stereo not shown) [Example 191, 6-(azetidin-3-ylmethoxy)-2-[[2-[2-oxo-3-(3-oxo-4H-pyrido[3,2-b][1,4]oxazin-6-yl)-1,3-oxazolidin-5-yl]ethylamino]methyl]-2,3-dihydro-1H-indene-4-carbonitrile; 2,2,2-trifluoroacetic acid] | 295 |
| N[C@H](CO)COc1ncc2c(c1Cl)CC(CNCCC1CN(c3ccc4c(n3)NC(=O)CO4)C(=O)O1)C2 (stereo partly drawn) [Example 237, 6-[5-[2-[[4-Chloro-3-[(2R)-2-amino-3-hydroxypropoxy]-6,7-dihydro-5H-cyclopenta[c]pyridin-6-yl]methylamino]ethyl]-2-oxo-1,3-oxazolidin-3-yl]-4H-pyrido[3,2-b][1,4]oxazin-3-one] | 140 |
| Cc1nc(OCC2CNC(=O)C2)c(C)c2c1CC(CNCCC1CN(c3ccc4c(n3)NC(=O)CO4)C(=O)O1)C2 (stereo not shown) [Example 102, 6-[5-[2-[[1,4-dimethyl-3-[(5-oxopyrrolidin-3-yl)methoxy]-6,7-dihydro-5H-cyclopenta[c]pyridin-6-yl]methylamino]ethyl]-2-oxo-1,3-oxazolidin-3-yl]-4H-pyrido[3,2-b][1,4]oxazin-3-one] | 871 |

Results, then the molecule that gave them:

| IC50 [nM] | SMILES |
| --- | --- |
| < 97.7 | N#Cc1cccc2c1CC(CNCCC1CN(c3ccc4c(n3)NC(=O)CS4)C(=O)O1)C2 (stereo not shown) [Example 64, 2-[[2-[2-oxo-3-(3-oxo-4H-pyrido[3,2-b][1,4]thiazin-6-yl)-1,3-oxazolidin-5-yl]ethylamino]methyl]-2,3-dihydro-1H-indene-4-carbonitrile] |
| 359 | N#Cc1cccc2c1CC(CNCCC1(N)CC(=O)N(c3ccc4c(n3)NC(=O)CO4)C1)C2 (stereo not shown) [Example 138, 2-[[2-[3-amino-5-oxo-1-(3-oxo-4H-pyrido[3,2-b][1,4]oxazin-6-yl)pyrrolidin-3-yl]ethylamino]methyl]-2,3-dihydro-1H-indene-4-carbonitrile] |
| < 97.7 | N#Cc1c(OCC2(N)CC2)ccc2c1CC(CNCCC1CN(c3ccc4c(n3)NC(=O)CO4)C(=O)O1)C2 (stereo not shown) [Example 124, 5-[(1-aminocyclopropyl)methoxy]-2-[[2-[2-oxo-3-(3-oxo-4H-pyrido[3,2-b][1,4]oxazin-6-yl)-1,3-oxazolidin-5-yl]ethylamino]methyl]-2,3-dihydro-1H-indene-4-carbonitrile hydrochloride] |
